Laboratory results from patent US20220409593A1 (ARKUDA THERAPEUTICS, priority 2019, published 2022).

System: secreted mouse PGRN
Assay: progranulin induction cellular assay (PGRN assay, ELISA-based readout)
Conditions: progranulin secreted into cell culture medium, cells named in method: mouse primary microglia, primary cortical neurons, BV-2
Procedure: Cellular Assays: To measure the efficacy of compounds, a progranulin induction cellular assay in mouse primary microglia (pMG), primary cortical neurons, and BV-2 cell lines is used. BV-2 cells are split the day before plating into a 96well plate format at approximately 80%. Cells should be plated the day before and allowed for 1 hour attachment period and for 16 hour incubation. Levels of progranulin secreted into the cell culture medium or retained in the cell lysate can be quantified using an ELISA-based readout and measurement of secreted mouse PGRN in the medium was assessed by the methodology published by Ghidoni et al. 2012. Standard ELISA kits to measure PGRN are available from vendors such as Adipogen, R&D, and Biovendor.
Table D below presents the results of a PGRN assay as described above.

Compound | EC50 (Mus musculus) [nM] | EC50 [nM]
N[C@H]1CC[C@@]2(COC(N3CCc4ccccc4[C@@H]3c3ccc(F)cc3)=N2)C1 [Compound 3084, (5S,7S)-2-((S)-1-(4-fluorophenyl)-3,4-dihydroisoquinolin-2(1H)-yl)-3-oxa-1-azaspiro[4.4]non-1-en-7-amine] | 204 | 
CN1CCC[C@@]2(CN=C(N3CCc4ccccc4[C@@H]3c3ccc(F)c(F)c3)O2)C1 (stereo in doubt) [Compound 3030] | 9650 | 
Fc1ccc([C@H]2c3ccccc3CCN2C2=N[C@@H](C3CCNCC3)CO2)cc1 (single isomer, unassigned) [Compound 3133] | 612 | 
CN1CCC[C@]2(CN=C(N3CCc4ccccc4[C@@H]3c3cccc(F)c3)O2)C1 (single isomer, unassigned) [Compound 3009] |  | 7020
Fc1ccc([C@H]2c3ccccc3CCN2C2=N[C@@H]([C@@H]3CCNC3)CO2)cc1 (single isomer, unassigned) [Compound 3074] | 338 | 
CN(C)[C@H]1C[C@@]2(CN=C(N3CCc4ccccc4[C@@H]3c3ccc(F)cc3)O2)C1 (single isomer, unassigned) [Compound 3159] | 209 | 
c1ccc([C@H]2c3ccccc3CCN2C2=NC[C@]3(CN4CCC3CC4)O2)cc1 (single isomer, unassigned) [Compound 3040] | 1130 | 
Fc1cccc([C@@H]2c3ccccc3CCN2C2=NC[C@@]3(CN4CCC3CC4)O2)c1F (single isomer, unassigned) [Compound 3018] | > 10000 | 
CN1CCC[C@@H]([C@@H]2CN=C(N3CCc4ccccc4[C@@H]3c3ccc(F)cc3)O2)C1 (single isomer, unassigned) [Compound 3150] | 266 | 
Fc1ccc([C@H]2c3ccccc3CCN2C2=NC[C@]3(CN4CCC3CC4)O2)c(F)c1 (single isomer, unassigned) [Compound 3017] | 260 | 
CN1CCC[C@@]2(CN=C(N3CCc4ccccc4[C@H]3c3cc(F)cc(F)c3)O2)C1 (single isomer, unassigned) [Compound 3013] | 1590 | 
CN1CCC[C@]2(CN=C(N3CCc4ccccc4[C@H]3c3ccc(F)c(F)c3)O2)C1 (stereo in doubt) [Compound 3031] | 4310 | 
Fc1ccc([C@H]2c3ccccc3CCN2C2=NC[C@@H]([C@H]3CCNC3)O2)cc1 (single isomer, unassigned) [Compound 3065] | 244 | 
CN1CCC[C@]2(CN=C(N3CCc4ccccc4[C@H]3c3cccc(F)c3)O2)C1 (single isomer, unassigned) [Compound 3008] | > 10000 | 
c1ccc([C@H]2c3ccccc3CCN2C2=NC[C@]3(CCNC3)O2)cc1 (single isomer, unassigned) [Compound 3166] | 163 | 
Fc1ccc([C@H]2c3ccccc3CCN2C2=NC[C@@]3(CN4CCC3CC4)O2)cc1 (single isomer, unassigned) [Compound 3001] | 100 | 
Fc1ccc([C@H]2c3ccccc3CCN2C2=NC[C@]3(CNC[C@@H]3F)O2)cc1 (single isomer, unassigned) [Compound 3169] | 200 | 
CN(C)[C@@H]1CC[C@]2(CN=C(N3CCc4ccccc4[C@@H]3c3ccc(F)cc3)O2)C1 (single isomer, unassigned) [Compound 3164] | 137 | 
Fc1ccc([C@H]2c3ccccc3CCN2C2=NC[C@@]3(CN4CCC3CC4)O2)c(F)c1 (single isomer, unassigned) [Compound 3016] | 860 | 
Fc1ccc([C@H]2c3ccccc3CCN2C2=N[C@@H]([C@H]3CCNC3)CO2)cc1 (single isomer, unassigned) [Compound 3073] | 66.9 | 
Fc1ccc([C@H]2c3ccccc3CCN2C2=NO[C@@]3(C2)CN2CCC3CC2)cc1 [Compound 3028, 2((S)-1-(4-fluorophenyl)-3,4-dihydroisoquinolin-2(1H)-yl)-4-4-azaspiro[bicyclo[2.2.2]octane-2,5oxazole]] | > 3160 | 
Fc1cc(F)cc([C@H]2c3ccccc3CCN2C2=NC[C@]3(CN4CCC3CC4)O2)c1 (stereo in doubt) [Compound 3037] | 1000 | 
Fc1ccc([C@H]2c3ccccc3CCN2C2=NC[C@@]3(CCN(CC(F)(F)F)C3)O2)cc1 [Compound 3172, (S)-2-((S)-1-(4-fluorophenyl)-3,4-dihydroisoquinolin-2(1H)-yl)-7-(2,2,2-trifluoroethyl)-1-oxa-3,7-diazaspiro[4.4]non-2-ene] | 1520 | 
Fc1cccc([C@H]2c3ccccc3CCN2C2=NC[C@]3(CN4CCC3CC4)O2)c1 (stereo in doubt) [Compound 3021] | > 10000 | 
Fc1cc(F)cc([C@H]2c3ccccc3CCN2C2=NC[C@]3(CN4CCC3CC4)O2)c1 (stereo in doubt) [Compound 3039] |  | 1050

Compound | EC50 (Mus musculus) [nM] | EC50 [nM]
CN1CCC2(CC1)COC(N1CCc3ccccc3[C@@H]1c1ccc(F)cc1)=N2 [Compound 3058, (S)-2-(1-(4-fluorophenyl)-3,4-dihydroisoquinolin-2(1H)-yl)-8-methyl-3-oxa-1,8-diazaspiro[4.5]dec-1-ene] | 380 | 
OCCN1CC[C@@]2(CN=C(N3CCc4ccccc4[C@@H]3c3ccc(F)cc3)O2)C1 [Compound 3175, 2-((S)-2-((S)-1-(4-fluorophenyl)-3,4-dihydroisoquinolin-2(1H)-yl)-1-oxa-3,7-diazaspiro[4.4]non-2-en-7-yl)ethan-1-ol] | 181 | 
CN(C)[C@@H]1CC[C@@]2(CN=C(N3CCc4ccccc4[C@@H]3c3ccc(F)cc3)O2)C1 (single isomer, unassigned) [Compound 3163] | 237 | 
N[C@@H]1CC[C@]2(CN=C(N3CCc4ccccc4[C@@H]3c3ccc(F)cc3)O2)C1 (single isomer, unassigned) [Compound 3079] | 236 | 
Fc1ccc([C@H]2c3ccccc3CCN2C2=NC[C@]3(CN4CCC3CC4)O2)cc1 (single isomer, unassigned) [Compound 3000] | 250 | 
CN1CCC[C@@]2(CN=C(N3CCc4ccccc4[C@H]3c3cc(F)c(F)c(F)c3)O2)C1 (single isomer, unassigned) [Compound 3005] | > 10000 | 
Fc1ccc([C@H]2c3ccccc3CCN2C2=N[C@@]3(CO2)CN2CCC3CC2)cc1 (single isomer, unassigned) [Compound 3057B] | 126 | 
Fc1ccc([C@H]2c3ccccc3CCN2C2=N[C@]3(CO2)CN2CCC3CC2)cc1 (single isomer, unassigned) [Compound 3057A] | 231 | 
Fc1ccc([C@H]2c3ccccc3CCN2C2=NC[C@@H](C34CCN(CC3)CC4)O2)cc1 [Compound 3048, 2-((S)-1-(4-fluorophenyl)-3,4-dihydroisoquinolin-2(1H)-yl)-5-(quinuclidin-4-yl)-4,5-dihydrooxazole] | 110 | 
Fc1ccc([C@H]2c3ccccc3CCN2C2=NC[C@]3(CCN(CCC(F)(F)F)C3)O2)cc1 [Compound 3173, (R)-2-((S)-1-(4-fluorophenyl)-3,4-dihydroisoquinolin-2(1H)-yl)-7-(3,3,3-trifluoropropyl)-1-oxa-3,7-diazaspiro[4.4]non-2-ene] | 1040 | 
Fc1ccc([C@H]2c3ccccc3CCN2C2=NC[C@@H]([C@@H]3CCCNC3)O2)cc1 (single isomer, unassigned) [Compound 3149] | 481 | 
OCCCN1CC[C@@]2(CN=C(N3CCc4ccccc4[C@@H]3c3ccc(F)cc3)O2)C1 [Compound 3176, 3-((S)-2-((S)-1-(4-fluorophenyl)-3,4-dihydroisoquinolin-2(1H)-yl)-1-oxa-3,7-diazaspiro[4.4]non-2-en-7-yl)propan-1-ol] | 318 | 
Fc1ccc([C@H]2c3ccccc3CCN2C2=NC[C@@H](C3CNC3)O2)cc1 (single isomer, unassigned) [Compound 3070] | 96.6 | 
CN(C)[C@H]1C[C@]2(CN=C(N3CCc4ccccc4[C@@H]3c3ccc(F)cc3)O2)C1 (single isomer, unassigned) [Compound 3158] | 3580 | 
Fc1ccc([C@H]2c3ccccc3CCN2C2=NC[C@H]([C@@H]3CCCNC3)O2)cc1 (single isomer, unassigned) [Compound 3075] | 222 | 
Fc1ccc([C@H]2c3ccccc3CCN2C2=NC3(CCNCC3)CO2)cc1 [Compound 3056, (S)-2-(1-(4-fluorophenyl)-3,4-dihydroisoquinolin-2(1H)-yl)-3-oxa-1,8-diazaspiro[4.5]dec-1-ene] | 110 | 
N[C@H]1C[C@@]2(CN=C(N3CCc4ccccc4[C@@H]3c3ccc(F)cc3)O2)C1 [Compound 3061, (S)-6-(1-(4-fluorophenyl)-3,4-dihydroisoquinolin-2(1H)-yl)-5-oxa-7-azaspiro[3.4]oct-6-en-2-amine] | 115 | 
Fc1ccc([C@H]2c3ccccc3CCN2C2=NC[C@@]3(CCCNC3)O2)cc1 [Compound 3051] | 980 | 
Fc1ccc([C@H]2c3ccccc3CCN2C2=NC[C@H]([C@@H]3CCNC3)O2)cc1 (single isomer, unassigned) [Compound 3063] | 208 | 
N[C@@H]1CC[C@@]2(COC(N3CCc4ccccc4[C@@H]3c3ccc(F)cc3)=N2)C1 [Compound 3082, (5S,7R)-2-((S)-1-(4-fluorophenyl)-3,4-dihydroisoquinolin-2(1H)-yl)-3-oxa-1-azaspiro[4.4]non-1-en-7-amine] | 160 | 
Fc1ccc([C@H]2c3ccccc3CCN2C2=NC[C@]3(CN4CCC3CC4)O2)cc1F (stereo in doubt) [Compound 3025] | 4060 | 
Fc1ccc([C@H]2c3ccccc3CCN2C2=NC[C@]3(CCNC3)O2)cc1 (single isomer, unassigned) [Compound 3050] | 15 | 
N[C@H]1CC[C@@]2(CN=C(N3CCc4ccccc4[C@@H]3c3ccc(F)cc3)O2)C1 (single isomer, unassigned) [Compound 3080] | 110 | 
Fc1cccc([C@H]2c3ccccc3CCN2C2=NC[C@@]3(CN4CCC3CC4)O2)c1 (stereo in doubt) [Compound 3020] | 9980 | 
